The values below come from the supplement of paper PMC6580486.

Each structure is given as a SMILES string.

One assay concerns PCB490-3 (human epithelioid sarcoma primary culture). Here is the method:
(§1)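 Roche open-access kinase inhibitor screen (223 compounds) on human epithelioid sarcoma primary cultures from three spatially distinct regions of tumor PCB490. 384-well plates, 72 h, CellTiter-Glo viability; IC50 by Hill curve fit. 100000 nM = no IC50 reached. Compound ids carry a plate-well prefix, which is stripped.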

The next assay relates to PCB490-4 (human epithelioid sarcoma primary culture). The procedure:
as §1

A further assay relates to PCB490-5 (human epithelioid sarcoma primary culture). Here is the method:
as §1

For the compound `O=C1NC(=NCCc2cccc(Cl)c2)S/C1=C\c1ccc2ncccc2c1`, the IC50 cell viability in the assay on PCB490-3, with PCB490-4 and in the assay on PCB490-5 was over 100 µM each time.
Consider `O=c1[nH]c2nc(NC3CCOCC3)ncc2cc1Oc1ccc(F)cc1F`, for which the IC50 cell viability in the assay with PCB490-3, in the assay with PCB490-4 and in the assay with PCB490-5 was over 100 µM throughout.
For `O=C1Nc2ccc(F)cc2/C1=C/c1ccc[nH]1`, the IC50 cell viability in the assay with PCB490-3, in the assay on PCB490-4 and in the assay with PCB490-5 was over 100 µM in each case.
Consider `Cn1cc(C2=C(c3cn(C)c4cc(N)ccc34)C(=O)NC2=O)c2ccccc21`, for which the IC50 cell viability with PCB490-3, in the assay with PCB490-4 and in the assay on PCB490-5 was over 100 µM in each case.
`O=C1NC(=N[C@H](CO)Cc2ccccc2)S/C1=C\c1ccc2ncccc2c1`: the IC50 cell viability with PCB490-3, in the assay with PCB490-4 and with PCB490-5 was over 100 µM throughout.
Turning to `COc1ccc2c(c1)C(c1ccccc1Cl)=Nc1c(n[nH]c1C)N2`, the IC50 cell viability in the assay with PCB490-3, with PCB490-4 and in the assay with PCB490-5 was over 100 µM throughout.
`Nc1c(C(=O)c2cccc(CCC3(O)CCCC3)c2)cnn1-c1ccc(F)cc1`: the IC50 cell viability in the assay with PCB490-3, in the assay on PCB490-4 and with PCB490-5 was over 100 µM in each case.
Take `C[C@H](O)CNc1cc(-c2[nH]c3cccnc3c2-c2ccc(F)cc2)ccn1`: the IC50 cell viability in the assay on PCB490-3, with PCB490-4 and in the assay on PCB490-5 was over 100 µM each time.
Take `Cn1c(=O)c(Oc2ccc(F)cc2F)cc2cnc(NC3CCC(O)CC3)nc21` (configuration not stated): the IC50 cell viability with PCB490-3, in the assay on PCB490-4 and with PCB490-5 was over 100 µM each time.
Regarding `Cn1cc(C2=C(c3cccc(Br)c3)C(=O)NC2=O)c2ccccc21`, the IC50 cell viability with PCB490-3, in the assay on PCB490-4 and in the assay with PCB490-5 was over 100 µM in each case.
For `O=C1NC(=NCCCc2ccccc2)S/C1=C\c1ccc2ncccc2c1`, the IC50 cell viability in the assay with PCB490-3, with PCB490-4 and in the assay with PCB490-5 was over 100 µM in each case.
Regarding `CN1C[C@@H]2Cn3c(c(C4=C(c5cn(C)c6ccccc56)C(=O)NC4=O)c4ccccc43)C[C@H]2C1`, the IC50 cell viability in the assay with PCB490-3, with PCB490-4 and in the assay with PCB490-5 was over 100 µM each time.
Take `COc1cccc(F)c1C(=O)c1cnc(NC2CCN(S(C)(=O)=O)CC2)nc1N`: the IC50 cell viability in the assay on PCB490-3, in the assay with PCB490-4 and in the assay with PCB490-5 was over 100 µM throughout.
On to `Cn1cc(C2=C(c3c4n(c5ccccc35)CCCCC4)C(=O)NC2=O)c2ccccc21`, for which the IC50 cell viability in the assay on PCB490-3, in the assay with PCB490-4 and in the assay on PCB490-5 was over 100 µM throughout.
Consider `O=C1NC(=N[C@@H](CO)c2ccccc2)S/C1=C\c1ccc2ncccc2c1`, for which the IC50 cell viability in the assay with PCB490-3, in the assay with PCB490-4 and in the assay on PCB490-5 was over 100 µM each time.
Consider `Cn1c(=O)c(Oc2ccc(F)cc2F)cc2cnc(NC(C)(C)CO)nc21`, for which the IC50 cell viability in the assay on PCB490-3, in the assay on PCB490-4 and with PCB490-5 was over 100 µM each time.
`Cn1cc(C2=C(c3ccsc3)C(=O)NC2=O)c2ccccc21`: the IC50 cell viability in the assay with PCB490-3, in the assay on PCB490-4 and in the assay with PCB490-5 was over 100 µM each time.
For `Nc1c(C(=O)c2cccc(-c3ccncc3)c2)cnn1-c1ccc(F)cc1F`, the IC50 cell viability in the assay with PCB490-3, in the assay on PCB490-4 and with PCB490-5 was over 100 µM in each case.
For `Cn1c(=O)c(Oc2cccc(F)c2)cc2cnc(NC3CCOCC3)nc21`, the IC50 cell viability in the assay with PCB490-3, in the assay with PCB490-4 and with PCB490-5 was over 100 µM throughout.
Regarding `CNc1ncc2cc(Oc3ccc(F)cc3F)c(=O)n(C)c2n1`, the IC50 cell viability with PCB490-3, in the assay on PCB490-4 and with PCB490-5 was over 100 µM each time.
Regarding `CNCCCn1cc(C2=C(c3cn(C)c4ccccc34)C(=O)NC2=O)c2ccccc21`, the IC50 cell viability in the assay with PCB490-3, in the assay on PCB490-4 and in the assay on PCB490-5 was over 100 µM each time.
With `O=C1NC(=NCc2ccccc2Br)S/C1=C\c1ccc2ncccc2c1`, the IC50 cell viability in the assay on PCB490-3, in the assay on PCB490-4 and in the assay on PCB490-5 was over 100 µM in each case.
For `Cc1ccc2c(c1)c(C1=C(c3cn(C)c4ccccc34)C(=O)NC1=O)cn2C`, the IC50 cell viability in the assay with PCB490-3, in the assay with PCB490-4 and in the assay on PCB490-5 was over 100 µM in each case.
For `Nc1c(C(=O)c2cccc(-c3cccnc3)c2)cnn1-c1ccc(F)cc1`, the IC50 cell viability in the assay on PCB490-3, with PCB490-4 and in the assay with PCB490-5 was over 100 µM each time.
On to `O=C1NC(=NCc2ccccn2)S/C1=C\c1ccc2ncccc2c1`, for which the IC50 cell viability with PCB490-3, with PCB490-4 and with PCB490-5 was over 100 µM each time.
For the compound `Nc1c(C(=O)c2cccc(CCCN3CCOCC3)c2)cnn1-c1ccc(F)cc1`, the IC50 cell viability in the assay with PCB490-3, in the assay on PCB490-4 and with PCB490-5 was over 100 µM throughout.
As to `C[C@@H](CS(C)(=O)=O)Nc1ncc2cc(Oc3ccc(F)cc3F)c(=O)n(C)c2n1`, the IC50 cell viability with PCB490-3, with PCB490-4 and in the assay with PCB490-5 was over 100 µM throughout.
With `Nc1c(C(=O)c2cccc(CCS(N)(=O)=O)c2)cnn1-c1ccc(F)cc1`, the IC50 cell viability in the assay with PCB490-3, with PCB490-4 and in the assay with PCB490-5 was over 100 µM each time.
In the case of `O=C1NC(=NCc2ccccc2)S/C1=C\c1ccc2ncccc2c1`, the IC50 cell viability in the assay with PCB490-3, with PCB490-4 and in the assay with PCB490-5 was over 100 µM each time.
Regarding `Nc1c(C(=O)c2ccccc2)cnn1-c1ccc(F)cc1`, the IC50 cell viability in the assay with PCB490-3, with PCB490-4 and in the assay with PCB490-5 was over 100 µM in each case.
`Cn1cc(C2=C(c3cn(C)c4ccc(Cl)cc34)C(=O)NC2=O)c2ccccc21`: the IC50 cell viability with PCB490-3, with PCB490-4 and in the assay with PCB490-5 was over 100 µM throughout.
`Cn1cc(C2=C(c3cn(CCCCN)c4ccccc34)C(=O)NC2=O)c2ccccc21`: the IC50 cell viability in the assay with PCB490-3, in the assay with PCB490-4 and in the assay with PCB490-5 was over 100 µM throughout.
Turning to `Cn1cc(C2=C(c3cn(CCCN=C(N)N)c4ccccc34)C(=O)NC2=O)c2ccccc21`, the IC50 cell viability with PCB490-3, with PCB490-4 and in the assay on PCB490-5 was over 100 µM each time.
For the compound `O=C1NC(=NCCc2ccc(Br)cc2)S/C1=C\c1ccc2ncccc2c1`, the IC50 cell viability in the assay with PCB490-3, in the assay with PCB490-4 and in the assay with PCB490-5 was over 100 µM throughout.
Take `CS(=O)(=O)CCc1cccc(C(=O)c2cnn(-c3ccc(F)cc3)c2N)c1`: the IC50 cell viability in the assay on PCB490-3, in the assay on PCB490-4 and in the assay with PCB490-5 was over 100 µM each time.
For `Cc1ccccc1-n1ncc(C(=O)c2ccccc2)c1N`, the IC50 cell viability in the assay on PCB490-3, in the assay on PCB490-4 and with PCB490-5 was over 100 µM each time.
Take `Cn1cc(C2=C(c3c[nH]c4ccccc34)C(=O)NC2=O)c2ccccc21`: the IC50 cell viability in the assay on PCB490-3, in the assay with PCB490-4 and with PCB490-5 was over 100 µM in each case.
Take `Cn1cc(C2=C(c3ccccc3[N+](=O)[O-])C(=O)NC2=O)c2ccccc21`: the IC50 cell viability with PCB490-3, with PCB490-4 and in the assay with PCB490-5 was over 100 µM each time.
Turning to `CC(C)(O)Cn1c(=O)c(Oc2ccc(F)cc2F)cc2cnc(NC3CCOCC3)nc21`, the IC50 cell viability with PCB490-3 was 2.86 µM; in the assay on PCB490-4, over 100 µM; in the assay on PCB490-5 it was over 100 µM.
As for `Nc1c(C(=O)c2cccc(C(O)(CO)CO)c2)cnn1-c1ccc(F)cc1`, the IC50 cell viability in the assay with PCB490-3, in the assay with PCB490-4 and with PCB490-5 was over 100 µM each time.
Take `Cn1cc(C2=C(c3cn(CCCCCO)c4ccccc34)C(=O)NC2=O)c2ccccc21`: the IC50 cell viability with PCB490-3, in the assay with PCB490-4 and in the assay on PCB490-5 was over 100 µM throughout.
Consider `Cc1ccccc1C1=C(c2cn(C)c3ccccc23)C(=O)NC1=O`, for which the IC50 cell viability in the assay with PCB490-3, with PCB490-4 and with PCB490-5 was over 100 µM in each case.
With `Cc1ccc(C)c(C2=C(c3cn(C)c4ccccc34)C(=O)NC2=O)c1`, the IC50 cell viability in the assay on PCB490-3, in the assay on PCB490-4 and in the assay on PCB490-5 was over 100 µM in each case.
Take `COc1cc[nH]c1/C=C1\C(=O)Nc2ccccc21`: the IC50 cell viability in the assay on PCB490-3, in the assay with PCB490-4 and in the assay on PCB490-5 was over 100 µM each time.
In the case of `COc1ccccc1CN=C1NC(=O)/C(=C/c2ccc3ncccc3c2)S1`, the IC50 cell viability in the assay with PCB490-3, in the assay with PCB490-4 and in the assay with PCB490-5 was over 100 µM each time.
Take `Cn1c(=O)c(Sc2ccccc2F)cc2cnc(NC3CCOCC3)nc21`: the IC50 cell viability with PCB490-3, with PCB490-4 and with PCB490-5 was over 100 µM throughout.
On to `OCCn1c(-c2ccncc2)c(-c2ccc(F)cc2)c2ncccc21`, for which the IC50 cell viability with PCB490-3, in the assay with PCB490-4 and with PCB490-5 was over 100 µM in each case.
With `CC(CO)Nc1cc(-c2[nH]c3cccnc3c2-c2ccc(F)cc2)ccn1` (configuration not stated), the IC50 cell viability in the assay on PCB490-3, with PCB490-4 and in the assay with PCB490-5 was over 100 µM throughout.
With `Cn1cc(C2=C(c3cn(C)c4ccc(N)cc34)C(=O)NC2=O)c2ccccc21`, the IC50 cell viability with PCB490-3, with PCB490-4 and with PCB490-5 was over 100 µM throughout.
